In ChEMBL document CHEMBL1201862, “PubChem BioAssay data set” (2004):
Calls of active or inactive are those of the source.

How the values were obtained:
[1] = target: T1, Tyrosine-protein phosphatase non-receptor type 22 (Homo sapiens, UniProt Q9Y2R2); type: functional
T1 sequence (Q9Y2R2 whole entry): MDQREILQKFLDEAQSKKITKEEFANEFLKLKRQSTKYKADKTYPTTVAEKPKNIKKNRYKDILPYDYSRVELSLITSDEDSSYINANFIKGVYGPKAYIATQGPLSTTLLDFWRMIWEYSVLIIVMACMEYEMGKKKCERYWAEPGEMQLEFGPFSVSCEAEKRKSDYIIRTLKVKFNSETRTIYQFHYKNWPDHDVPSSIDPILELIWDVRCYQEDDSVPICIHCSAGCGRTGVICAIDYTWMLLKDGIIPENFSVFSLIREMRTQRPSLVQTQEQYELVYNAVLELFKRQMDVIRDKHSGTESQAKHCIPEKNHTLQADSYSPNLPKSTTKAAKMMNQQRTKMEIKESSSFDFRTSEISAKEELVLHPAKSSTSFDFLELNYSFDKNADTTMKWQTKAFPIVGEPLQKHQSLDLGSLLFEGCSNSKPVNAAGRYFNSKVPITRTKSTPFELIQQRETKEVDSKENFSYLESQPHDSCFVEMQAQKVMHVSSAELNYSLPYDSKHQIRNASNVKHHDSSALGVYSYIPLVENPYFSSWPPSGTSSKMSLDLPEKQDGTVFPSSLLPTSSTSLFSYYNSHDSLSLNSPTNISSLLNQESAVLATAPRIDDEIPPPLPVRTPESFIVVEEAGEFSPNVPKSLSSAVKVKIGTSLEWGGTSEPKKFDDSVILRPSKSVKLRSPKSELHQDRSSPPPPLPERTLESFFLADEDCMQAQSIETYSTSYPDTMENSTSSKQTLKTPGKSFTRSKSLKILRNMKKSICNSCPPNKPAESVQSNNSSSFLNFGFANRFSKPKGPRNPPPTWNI

[2] = target: T2, Tyrosine-protein phosphatase non-receptor type 7 (Homo sapiens, UniProt P35236); type: functional
T2 sequence (P35236 whole entry): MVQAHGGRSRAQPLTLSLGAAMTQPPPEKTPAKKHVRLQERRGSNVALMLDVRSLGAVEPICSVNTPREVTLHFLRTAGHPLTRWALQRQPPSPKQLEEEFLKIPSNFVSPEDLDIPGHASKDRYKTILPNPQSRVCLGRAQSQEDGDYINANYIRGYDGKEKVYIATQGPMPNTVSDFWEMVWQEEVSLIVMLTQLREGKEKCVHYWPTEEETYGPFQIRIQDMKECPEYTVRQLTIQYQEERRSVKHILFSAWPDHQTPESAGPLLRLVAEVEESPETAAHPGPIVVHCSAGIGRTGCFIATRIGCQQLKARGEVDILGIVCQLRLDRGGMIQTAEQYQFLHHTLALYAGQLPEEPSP

[3] = target: T1, Tyrosine-protein phosphatase non-receptor type 22; type: functional; remark: listed apart in the source
[4] = target: Intestinal-type alkaline phosphatase (Mus musculus, UniProt P24822); assay: mouse intestinal alkaline phosphatase activators, dose response, biochemical, luminescence, uHTS hits (AID 488783); type: functional
[5] = target: T3, Alkaline phosphatase, tissue-nonspecific isozyme (Homo sapiens, UniProt P05186); assay: TNAP enzyme activators, dose response, selectivity assay for mouse IAP activator project, biochemical, TNAP isozyme, mouse IAP uHTS hits (AID 488880); type: functional
T3 sequence (P05186 whole entry): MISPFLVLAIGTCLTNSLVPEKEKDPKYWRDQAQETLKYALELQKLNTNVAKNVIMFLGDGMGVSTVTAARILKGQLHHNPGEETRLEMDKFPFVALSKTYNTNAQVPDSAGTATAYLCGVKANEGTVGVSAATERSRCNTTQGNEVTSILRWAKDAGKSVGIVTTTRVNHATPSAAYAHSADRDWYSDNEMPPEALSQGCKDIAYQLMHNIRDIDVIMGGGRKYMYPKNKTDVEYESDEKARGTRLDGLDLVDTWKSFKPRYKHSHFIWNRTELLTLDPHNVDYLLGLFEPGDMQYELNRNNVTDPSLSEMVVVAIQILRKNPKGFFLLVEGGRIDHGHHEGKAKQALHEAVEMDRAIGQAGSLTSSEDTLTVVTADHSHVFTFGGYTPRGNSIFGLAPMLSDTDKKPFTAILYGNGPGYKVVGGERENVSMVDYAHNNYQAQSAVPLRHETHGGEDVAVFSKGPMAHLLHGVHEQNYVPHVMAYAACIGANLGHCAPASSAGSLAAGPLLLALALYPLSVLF

[6] = target: Intestinal-type alkaline phosphatase (Homo sapiens, UniProt P09923); assay: activation of human intestinal alkaline phosphatase – biochemical, dose response (AID 488873); type: functional
INS1 = assay: beta cell apoptosis inhibitors, cytokine rescue, dose response, luminescence, retest (AID 449756); type: functional, cell-based; conditions: Rattus norvegicus;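 note: cell death triggered by IL-1 beta plus TNF-alpha plus IFN-gamma mixture; protective hits raise ATP signal compared with cytokine alone wells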
[7] = Luminescence Cell-Based Dose Response HTS to Identify Inhibitors of 5'UTR Stem-Loop Driven Prion Protein mRNA Translation in H4 Neuroglioblastoma Cells. [Related pubchem assays: 1827 (Project Summary), 1813 (Primary HTS)]; type: functional
BJ [8] = assay: cytotoxicity toward BJ-TERT fibroblasts, dose response, cell-based, RAS-independent, luminescence (AID 1933); type: functional; conditions: Homo sapiens
Mu-type opioid receptor = Mu-type opioid receptor (Homo sapiens, UniProt P35372); assay: HTS Image-Based Screen for Agonists of the MOR Receptor. [Related pubchem assays (depositor defined):AID1777, AID1785, AID1786, AID2133]; type: functional;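 note: imaging of beta-arrestin GFP recruitment into spots after receptor activation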
Beta-galactosidase = Beta-galactosidase (Escherichia coli, UniProt Q8VNN2); type: functional
[9] = target: T4, Sentrin-specific protease 7 (Homo sapiens, UniProt Q9BQF6); type: functional;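 note: Luminescence-based dose-response confirmation of ultra-high-throughput screening hits, measuring inhibition of SENP7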
T4 sequence (Q9BQF6 whole entry): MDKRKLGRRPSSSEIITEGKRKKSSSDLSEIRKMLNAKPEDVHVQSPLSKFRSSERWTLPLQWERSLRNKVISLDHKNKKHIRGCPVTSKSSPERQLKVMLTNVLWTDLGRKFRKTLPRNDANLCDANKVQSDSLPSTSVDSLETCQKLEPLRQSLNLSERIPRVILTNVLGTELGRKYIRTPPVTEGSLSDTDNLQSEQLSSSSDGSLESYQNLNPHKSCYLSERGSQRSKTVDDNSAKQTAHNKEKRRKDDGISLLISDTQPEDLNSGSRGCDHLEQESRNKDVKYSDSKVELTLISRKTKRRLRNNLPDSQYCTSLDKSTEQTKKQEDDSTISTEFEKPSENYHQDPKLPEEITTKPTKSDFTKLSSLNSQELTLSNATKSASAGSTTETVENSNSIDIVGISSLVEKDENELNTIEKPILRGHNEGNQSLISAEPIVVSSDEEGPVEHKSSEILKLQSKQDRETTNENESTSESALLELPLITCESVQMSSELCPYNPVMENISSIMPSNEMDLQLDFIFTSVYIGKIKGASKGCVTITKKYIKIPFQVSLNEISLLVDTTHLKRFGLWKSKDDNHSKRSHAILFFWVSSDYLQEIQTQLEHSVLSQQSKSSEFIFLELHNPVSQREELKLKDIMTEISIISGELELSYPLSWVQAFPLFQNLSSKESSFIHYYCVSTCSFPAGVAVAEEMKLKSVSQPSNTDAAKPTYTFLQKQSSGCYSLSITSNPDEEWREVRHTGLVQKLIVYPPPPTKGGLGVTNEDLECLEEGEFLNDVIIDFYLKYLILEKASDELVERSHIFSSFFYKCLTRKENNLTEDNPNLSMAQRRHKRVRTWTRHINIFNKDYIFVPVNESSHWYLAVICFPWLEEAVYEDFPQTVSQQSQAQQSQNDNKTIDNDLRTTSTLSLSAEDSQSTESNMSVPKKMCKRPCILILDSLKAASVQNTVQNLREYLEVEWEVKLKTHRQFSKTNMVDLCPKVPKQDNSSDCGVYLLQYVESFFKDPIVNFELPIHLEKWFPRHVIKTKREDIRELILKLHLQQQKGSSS

[10] = target: T5, Sentrin-specific protease 8 (Homo sapiens, UniProt Q96LD8); type: functional;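 note: luminescence read-out of SENP8 inhibition, dose-response confirmation following an ultra-high-throughput screen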
T5 sequence (Q96LD8 whole entry): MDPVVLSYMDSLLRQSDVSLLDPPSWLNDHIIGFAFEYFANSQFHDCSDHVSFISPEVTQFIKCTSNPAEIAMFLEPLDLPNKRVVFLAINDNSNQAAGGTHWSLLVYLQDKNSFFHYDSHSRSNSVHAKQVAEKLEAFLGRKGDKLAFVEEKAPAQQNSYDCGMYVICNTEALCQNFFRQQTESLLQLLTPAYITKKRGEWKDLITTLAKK

BJ [11] = assay: cytotoxicity toward BJ-TERT-LT-ST fibroblasts, dose response, cell-based, RAS-independent, luminescence (AID 1935); type: functional; conditions: Homo sapiens;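 note: BJ fibroblasts immortalized with TERT plus LT and ST oncogenes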
[12] = target: T6, Delta-type opioid receptor (Homo sapiens, UniProt P41143); assay: HTS Image-Based Screen for Agonists of the DOR Receptor. [Related pubchem assays (depositor defined):AID1777, AID1786, AID2133]; type: functional
[13] = inhibitors of SNCA 5'UTR-driven reporter translation, confirmation, H4 neuroglioma cells, luminescence (AID 1988); type: functional, cell-based
[14] = target: T7, Sentrin-specific protease 6 (Homo sapiens, UniProt Q9GZR1); type: functional;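 note: Luminescence-based dose-response confirmatory assay of SENP6 inhibition, following up an ultra-high-throughput screen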
T7 sequence (Q9GZR1 whole entry): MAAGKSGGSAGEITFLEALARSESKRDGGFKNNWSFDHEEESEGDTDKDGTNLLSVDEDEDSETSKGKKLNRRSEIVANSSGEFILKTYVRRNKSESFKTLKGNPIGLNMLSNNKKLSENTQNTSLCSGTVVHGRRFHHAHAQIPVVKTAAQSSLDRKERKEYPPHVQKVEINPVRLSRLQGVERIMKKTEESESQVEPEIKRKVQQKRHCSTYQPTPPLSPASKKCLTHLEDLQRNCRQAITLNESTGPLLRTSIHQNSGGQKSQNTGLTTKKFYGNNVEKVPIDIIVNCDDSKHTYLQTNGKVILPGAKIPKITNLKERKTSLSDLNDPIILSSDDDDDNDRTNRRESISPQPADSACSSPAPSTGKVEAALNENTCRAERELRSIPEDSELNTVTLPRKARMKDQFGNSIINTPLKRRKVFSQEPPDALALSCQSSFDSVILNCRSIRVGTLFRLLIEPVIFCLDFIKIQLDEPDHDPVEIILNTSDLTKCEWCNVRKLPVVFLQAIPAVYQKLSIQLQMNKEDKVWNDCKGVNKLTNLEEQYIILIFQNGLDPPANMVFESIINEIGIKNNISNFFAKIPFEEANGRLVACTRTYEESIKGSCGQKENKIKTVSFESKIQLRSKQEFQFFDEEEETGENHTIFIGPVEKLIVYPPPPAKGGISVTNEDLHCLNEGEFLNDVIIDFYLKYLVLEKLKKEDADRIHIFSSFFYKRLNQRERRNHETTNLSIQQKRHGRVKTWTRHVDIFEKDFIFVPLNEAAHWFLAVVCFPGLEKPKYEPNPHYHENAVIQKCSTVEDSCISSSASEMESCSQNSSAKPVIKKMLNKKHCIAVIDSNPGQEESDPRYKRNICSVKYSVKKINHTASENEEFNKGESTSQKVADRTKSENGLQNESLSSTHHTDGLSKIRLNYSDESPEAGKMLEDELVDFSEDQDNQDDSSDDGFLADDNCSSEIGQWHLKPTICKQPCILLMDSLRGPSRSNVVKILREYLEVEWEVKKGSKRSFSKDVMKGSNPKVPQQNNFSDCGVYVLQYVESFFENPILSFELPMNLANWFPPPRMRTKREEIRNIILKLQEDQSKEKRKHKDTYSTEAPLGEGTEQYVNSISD

[15] = cytotoxicity toward DRD oncogenic fibroblasts, dose response, cell-based, non-viral oncogenic, luminescence (AID 1934); type: functional; conditions: Homo sapiens
BJ [16] = assay: cells; type: functional, cell-based; conditions: Homo sapiens
[17] = Luminescence-based dose response cell-based high throughput screening assay for cytotoxic compounds using the IEC-6 intestinal epithelial cell line. [Related pubchem assays: 1858 (Summary AID.), 1825 (Counterscreen.), 1907 (Confirmation screen.)]; type: functional
[18] = target: T6, Delta-type opioid receptor; assay: HTS Image-Based Screen for Antagonists of the DOR Receptor. [Related pubchem assays (depositor defined):AID1777, AID1785, AID1786, AID2133]; type: functional
[19] = target: T8, Kappa-type opioid receptor (Homo sapiens, UniProt P41145); type: functional
[20] = inhibitors of firefly luciferase expression or activity, dose response, H4 neuroglioma cells, luminescence (AID 1990); type: functional, cell-based
[21] = target: T8, Kappa-type opioid receptor; type: functional; remark: listed apart in the source
cells [22] = type: functional, cell-based
cells [23] = type: functional, cell-based; remark: listed apart in the source
Caspase-3 = target: T9, Caspase-3 (Homo sapiens, UniProt P42574); type: functional;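 note: Dose-response selectivity test against caspase-3 for candidate inhibitors of sentrin-specific proteases (SENPs)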
T9 sequence (P42574 whole entry): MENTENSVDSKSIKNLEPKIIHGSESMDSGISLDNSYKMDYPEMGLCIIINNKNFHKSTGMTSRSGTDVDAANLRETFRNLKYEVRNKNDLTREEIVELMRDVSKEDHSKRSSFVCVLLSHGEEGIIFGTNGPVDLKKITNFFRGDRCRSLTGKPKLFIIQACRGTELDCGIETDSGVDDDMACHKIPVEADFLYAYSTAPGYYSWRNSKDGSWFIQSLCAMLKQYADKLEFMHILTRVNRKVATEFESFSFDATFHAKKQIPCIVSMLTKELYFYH

T8 sequence (P41145 whole entry): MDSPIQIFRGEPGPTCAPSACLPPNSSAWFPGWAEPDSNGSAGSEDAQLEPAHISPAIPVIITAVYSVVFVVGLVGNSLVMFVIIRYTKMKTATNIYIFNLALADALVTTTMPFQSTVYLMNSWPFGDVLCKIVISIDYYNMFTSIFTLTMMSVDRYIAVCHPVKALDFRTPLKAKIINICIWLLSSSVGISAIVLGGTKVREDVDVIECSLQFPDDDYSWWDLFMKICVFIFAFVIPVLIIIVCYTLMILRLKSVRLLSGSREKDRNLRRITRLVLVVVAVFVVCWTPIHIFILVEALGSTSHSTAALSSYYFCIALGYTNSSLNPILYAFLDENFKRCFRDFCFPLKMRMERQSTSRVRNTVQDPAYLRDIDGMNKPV
T6 sequence (P41143 whole entry): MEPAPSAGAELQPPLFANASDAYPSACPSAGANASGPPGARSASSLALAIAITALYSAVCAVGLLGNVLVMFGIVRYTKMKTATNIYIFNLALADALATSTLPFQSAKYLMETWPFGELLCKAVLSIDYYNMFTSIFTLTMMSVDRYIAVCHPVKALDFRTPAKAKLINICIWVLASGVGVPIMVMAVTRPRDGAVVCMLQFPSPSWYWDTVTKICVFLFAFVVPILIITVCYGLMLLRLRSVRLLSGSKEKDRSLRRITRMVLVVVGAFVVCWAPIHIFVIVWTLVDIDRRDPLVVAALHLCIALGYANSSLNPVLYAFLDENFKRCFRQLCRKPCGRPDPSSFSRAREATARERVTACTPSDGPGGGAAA
Chain of Mu-type opioid receptor (P35372 whole entry): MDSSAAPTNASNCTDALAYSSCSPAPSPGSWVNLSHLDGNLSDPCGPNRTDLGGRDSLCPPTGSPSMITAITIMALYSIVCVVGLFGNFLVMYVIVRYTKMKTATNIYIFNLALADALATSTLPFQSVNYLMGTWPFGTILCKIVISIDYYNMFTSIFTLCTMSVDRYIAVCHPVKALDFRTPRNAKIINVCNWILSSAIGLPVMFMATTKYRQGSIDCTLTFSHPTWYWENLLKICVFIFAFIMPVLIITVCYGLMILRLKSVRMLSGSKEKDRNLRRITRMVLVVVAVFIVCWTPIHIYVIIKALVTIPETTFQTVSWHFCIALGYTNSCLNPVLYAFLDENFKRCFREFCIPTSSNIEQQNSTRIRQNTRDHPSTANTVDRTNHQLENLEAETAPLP
Chain of Intestinal-type alkaline phosphatase (Mus musculus, UniProt P24822) (P24822 whole entry): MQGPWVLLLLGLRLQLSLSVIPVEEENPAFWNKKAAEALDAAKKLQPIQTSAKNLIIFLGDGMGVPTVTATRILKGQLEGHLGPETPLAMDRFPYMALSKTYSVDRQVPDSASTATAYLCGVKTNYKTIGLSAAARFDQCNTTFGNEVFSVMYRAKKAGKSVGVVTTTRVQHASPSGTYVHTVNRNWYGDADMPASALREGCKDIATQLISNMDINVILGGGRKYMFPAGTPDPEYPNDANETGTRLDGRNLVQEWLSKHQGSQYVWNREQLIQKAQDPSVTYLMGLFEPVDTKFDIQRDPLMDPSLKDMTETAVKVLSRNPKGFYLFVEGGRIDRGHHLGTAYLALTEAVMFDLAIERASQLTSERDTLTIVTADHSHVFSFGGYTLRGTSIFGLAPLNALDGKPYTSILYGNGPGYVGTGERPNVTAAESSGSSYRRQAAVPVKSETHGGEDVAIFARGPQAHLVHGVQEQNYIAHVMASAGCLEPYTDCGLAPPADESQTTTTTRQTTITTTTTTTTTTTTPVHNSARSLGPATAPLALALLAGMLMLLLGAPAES
Chain of Beta-galactosidase (Q8VNN2 whole entry): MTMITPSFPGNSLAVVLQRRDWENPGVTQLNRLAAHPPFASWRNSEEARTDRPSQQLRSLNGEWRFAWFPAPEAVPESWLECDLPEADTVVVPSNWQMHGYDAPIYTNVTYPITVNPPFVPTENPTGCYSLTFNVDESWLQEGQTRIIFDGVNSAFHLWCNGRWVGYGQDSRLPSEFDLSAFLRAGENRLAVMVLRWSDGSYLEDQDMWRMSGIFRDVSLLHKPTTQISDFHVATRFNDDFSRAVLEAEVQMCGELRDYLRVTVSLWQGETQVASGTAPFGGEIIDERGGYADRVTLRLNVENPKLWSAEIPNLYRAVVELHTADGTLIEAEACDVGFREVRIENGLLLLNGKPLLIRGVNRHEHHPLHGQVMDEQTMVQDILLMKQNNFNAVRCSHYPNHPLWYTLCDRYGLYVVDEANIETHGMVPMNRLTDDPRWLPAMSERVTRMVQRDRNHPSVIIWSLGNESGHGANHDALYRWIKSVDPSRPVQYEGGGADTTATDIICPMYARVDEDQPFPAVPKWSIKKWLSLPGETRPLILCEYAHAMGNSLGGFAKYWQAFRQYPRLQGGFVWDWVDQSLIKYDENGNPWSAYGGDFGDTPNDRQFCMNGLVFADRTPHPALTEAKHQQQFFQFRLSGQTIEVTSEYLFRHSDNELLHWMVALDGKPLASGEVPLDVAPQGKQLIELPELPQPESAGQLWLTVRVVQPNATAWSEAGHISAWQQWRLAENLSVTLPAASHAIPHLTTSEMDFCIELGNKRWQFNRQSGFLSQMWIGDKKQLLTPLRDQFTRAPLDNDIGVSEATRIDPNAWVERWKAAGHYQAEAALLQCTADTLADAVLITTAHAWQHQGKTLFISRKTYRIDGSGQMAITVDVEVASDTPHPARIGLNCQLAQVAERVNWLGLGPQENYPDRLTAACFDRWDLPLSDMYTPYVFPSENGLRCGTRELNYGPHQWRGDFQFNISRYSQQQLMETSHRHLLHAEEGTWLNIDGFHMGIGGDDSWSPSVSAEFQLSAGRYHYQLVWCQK
Chain of Intestinal-type alkaline phosphatase (Homo sapiens, UniProt P09923) (P09923 whole entry): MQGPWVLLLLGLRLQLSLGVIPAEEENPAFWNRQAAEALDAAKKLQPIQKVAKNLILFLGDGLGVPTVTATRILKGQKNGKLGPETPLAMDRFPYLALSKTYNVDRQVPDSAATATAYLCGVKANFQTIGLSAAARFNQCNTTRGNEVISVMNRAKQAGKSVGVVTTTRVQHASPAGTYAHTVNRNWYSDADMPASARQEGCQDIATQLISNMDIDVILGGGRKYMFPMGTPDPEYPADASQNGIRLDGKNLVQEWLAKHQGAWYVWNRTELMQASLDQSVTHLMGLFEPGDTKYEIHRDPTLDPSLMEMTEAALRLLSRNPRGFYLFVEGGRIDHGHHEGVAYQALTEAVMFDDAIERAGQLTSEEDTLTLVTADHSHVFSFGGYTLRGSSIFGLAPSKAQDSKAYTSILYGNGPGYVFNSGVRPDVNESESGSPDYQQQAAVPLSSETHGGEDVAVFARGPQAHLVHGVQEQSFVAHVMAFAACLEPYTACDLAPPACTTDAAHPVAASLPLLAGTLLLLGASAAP

Structure (SMILES): COc1ccc2c(OC)cc(=O)n(C)c2c1
- IC50 [1]: > 79.4 µM (inactive)
- IC50 [2]: > 79.4 µM (inactive)
- IC50 [3]: > 79.4 µM (inactive)

Structure (SMILES): Nc1cc2nc3ccccc3oc-2cc1=O
- EC50 [4]: 64.1 µM (active)
- EC50 [5]: 74.5 µM (active)
- EC50 [6]: 72.1 µM (active)

Structure (SMILES): COc1cccc2sc(Nc3nc(-c4ccccn4)cs3)nc12
- AC50 (INS1): 1.17 µM (active)
- EC50 [7]: 0.126 µM (active)
- EC50 (BJ [8]): 12.3 µM (inconclusive)
- EC50 (Mu-type opioid receptor): > 32 µM (inactive)
- EC50 (Beta-galactosidase): > 31.5 µM (inactive)
- IC50 [9]: 4.38 µM (active)
- IC50 [10]: > 100 µM (inactive)
- EC50 (BJ [11]): 8.02 µM (inconclusive)
- EC50 [12]: > 32 µM (inactive)
- EC50 [13]: 2.23 µM (active)
- IC50 [14]: 6.04 µM (active)
- EC50 [15]: 17.5 µM (inconclusive)
- EC50 (BJ [16]): 12.2 µM (active)
- IC50 [17]: 1.4 µM (active)
- IC50 [18]: > 32 µM (inactive)
- IC50 [19]: 1.62 µM (active)
- EC50 [20]: 84.1 µM (active)
- IC50 [21]: > 32 µM
- EC50 (cells [22]): 64.5 µM (active)
- EC50 (cells [23]): 6.91 µM (active)
- IC50 (Caspase-3): 31.7 µM (active)
